Measured values: patent US9914709B2, “Compositions and methods of treating HIV-1 infections using same” (YALE UNIVERSITY, priority 2013, dated 2018)
Like-named read-outs stand apart in the source and are kept apart here.

Legend:
wild-type HIV-1 = conditions: MT-4 cells; Janssen 2005 / Ludovici 2001; read-out: previously reported EC50, wild-type; cited from earlier work
HIV-1 Y181C variant [1] = conditions: MT-4 cells; Janssen 2005 / Ludovici 2001; read-out: previously reported EC50, Y181C; cited from earlier work
MT-2 human T-cells = assay: Cytotoxicity, inhibition of MT-2 cell growth; conditions: read-out: cytotoxicity (CC50); Table 4; human MT-2 cells
[2] = test system: HIV-1 K103N/Y181C variant; conditions: MT-4 cells; Janssen 2005 / Ludovici 2001; read-out: previously reported EC50, K103N/Y181C; cited from earlier work
HIV-1 Y181C variant [3] = assay: microbe, parasite or virus in culture; type: cell-based
[4] = test system: HIV-1 K103N/Y181C variant; assay: microbe, parasite or virus in culture; type: cell-based
[5] = Cytotoxicity, inhibition of MT-2 cell growth; conditions: human
[6] = Aqueous solubility, literature reports; type: physicochemical; conditions: translated from 20 ng/mL at pH 7.0

Row | SMILES | EC50 (wild-type HIV-1) | EC50 (HIV-1 Y181C variant [1]) | CC50 (MT-2 human T-cells) | EC50 [2] | EC50 (HIV-1 Y181C variant [3]; Human immunodeficiency virus 1, MT2, read-out: EC50, Y181C variant) | EC50 (HIV-1 Y181C variant [3]; Human immunodeficiency virus 1, MT2, read-out: EC50 Y181C) | EC50 ([4]; Human immunodeficiency virus 1, MT2, read-out: EC50, K103N/Y181C variant) | EC50 ([4]; Human immunodeficiency virus 1, MT2, read-out: EC50 K103N/Y181C) | CC50 [5] | S [6]
1 | Cc1cc(C)c(Nc2ccnc(Nc3ccc(C#N)cc3)n2)c(C)c1 [Compound 10a, dapivirine, reference compound] | 1.2 nM | 7 nM | 2000 nM | 54 nM | 39 nM | 39 nM | 39 nM | 39 nM | – | –
2 | Cc1ccnc2c1NC(=O)c1cccnc1N2C1CC1 [nevirapine] | – | – | > 100000 nM | – | – | – | – | – | > 100000 nM | –
3 | Cc1cc(/C=C/C#N)cc(C)c1Nc1ccnc(Nc2ccc(C#N)cc2)n1 [rilpivirine, reference compound] | – | – | – | – | – | – | – | – | – | 50 nM
